The structures appear in SMILES notation.

Usually IC50 stands for the midpoint of a concentration-inhibition curve. Low values mean greater potency in that assay, high ones weaker potency in that assay. As usually defined, the inhibition is the change of the read-out against control, counted positive when it falls.

Common to all, as to format: biochemical
One assay deals with T1, Lyn kinase (human) (Homo sapiens, UniProt P07948).
T1 construct: purchased Upstate Biotechnology, Lake Placid, N.Y
Put plainly: Lyn Kinase Assay (h). The procedure: A mixture of a 10× kinase buffer (500 mM MOPS at pH 7.5, 1 mM EGTA, 1 mM Sodium Vanadate, 1% β-mercaptoethanol and 100 mM Magnesium Acetate), ATP (5 μM final from a 10 mM stock), polyGluTyr (0.1 mg/mL final from a 1 mg/mL stock), γ-^33P ATP (10 μCi/μL stock) and water (20 μL/well) was added to each well of a Streptavidin Flashplate.
Test compound in 100% DMSO (0.5 μL) was added to the appropriate wells. Diluted Lyn kinase (human) (Upstate Biotechnology, Lake Placid, N.Y.) (diluted in a buffer consisting of 50 mM Tris at pH 7.5, 0.1 mM EGTA, Sodium Vanadate (0.1 mM), β-mercaptoethanol (0.1%) and 1 mg/mL bovine serum albumin) (2.5 μL) was added to the wells to initiate the reactions.
The reaction plates were incubated at 30° C. for 40 min. The reaction was terminated by the addition of a 3% phosphoric acid solution (5 μL). The reaction product (10 μL) was spotted onto a P30 filtermat and washed for 5 minutes in phosphoric acid (75 mM). The wash sequence was repeated two more times, followed with one final wash in methanol. The plates were then dried, sealed and read on the TopCount scintillation counter after adding 30 μL scintillation fluid.
The percent inhibitions and IC50 values were derived according to the procedure described in Example 52. For those compounds without an IC50, the percent inhibition results are shown at a test concentration of ^(1) 1 μM or ^(2) 1.6 μM.

The next assay has as its target LYN (m) (Mus musculus, UniProt P25911). As to the kind of experiment: Lyn Kinase Assay (m).
The target of another assay is T2, HER-2 (Homo sapiens, UniProt P04626).
T2 construct: the nucleotides encoding amino acids 679 to 1255 of HER-2; HIS6 with thrombin site (N); purchased Proqinase (Freiburg, Germany)
T2 sequence (P04626 679-1255): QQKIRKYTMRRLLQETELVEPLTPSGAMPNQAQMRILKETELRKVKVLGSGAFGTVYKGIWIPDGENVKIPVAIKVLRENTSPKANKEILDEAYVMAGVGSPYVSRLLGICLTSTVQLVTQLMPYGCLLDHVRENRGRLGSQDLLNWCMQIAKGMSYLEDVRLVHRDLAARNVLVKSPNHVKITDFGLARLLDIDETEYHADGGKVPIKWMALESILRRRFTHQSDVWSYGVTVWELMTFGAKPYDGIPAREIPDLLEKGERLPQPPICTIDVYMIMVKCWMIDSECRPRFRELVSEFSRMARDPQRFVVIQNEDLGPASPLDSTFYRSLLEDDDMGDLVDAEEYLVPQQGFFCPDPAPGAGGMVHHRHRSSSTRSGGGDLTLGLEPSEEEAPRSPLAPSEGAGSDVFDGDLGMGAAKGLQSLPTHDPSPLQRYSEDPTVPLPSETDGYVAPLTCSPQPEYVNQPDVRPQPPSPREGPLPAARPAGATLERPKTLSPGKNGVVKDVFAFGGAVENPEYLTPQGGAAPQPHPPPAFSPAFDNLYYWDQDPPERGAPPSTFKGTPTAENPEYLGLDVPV
Put plainly: HER-2 Kinase Assay. The settings on record: GST-HER2 kinase, 1 μM ATP. The procedure:
The HER-2 kinase used was purified at Proqinase (Freiburg, Germany) from a construct that consisted of a fusion of GST (Glutathione-S-Transferase), HIS6-Thrombin and the nucleotides encoding amino acids 679 to 1255 of HER-2.
A mixture of a 10× kinase reaction buffer (600 mM Hepes at pH 7.5, 30 mM Magnesium Chloride, 0.03 mM Sodium Vanadate and 500 μg/mL PEG 20,000), DTT (1.2 mM final from a 10 mM stock), ATP (1 μM from a 10 mM stock), biotinylated polyGluTyr (1.5 ng/μL final from stock of 1 μg/μL prepared by Upstate Biotechnologies, Lake Placid, N.Y.), Manganese Chloride (3 mM final from a 1 M stock), γy-^33P-ATP (10 μCi/μL stock) and water (70 μL/well) was added to each well of a Streptavidin Flashplate (Cat. # SMP103, NEN, Boston, Mass.).
Test compound stock (1 μL) was added to the appropriate wells. Diluted GSTHER2 kinase (6.7 ng/μL diluted into 50 mM Tris-HCl at pH 8.0 and 0.1% bovine serum albumin) (30 μL) was added (total volume of 200 ng/well) to initiate the reactions.
The reaction plates were incubated at 30° C. for 1 hr. The reaction was terminated by aspirating the reaction mixture from the plate wells and washing the wells three times with a 1×PBS stop buffer (300 μL) and 100 mM EDTA. After the final wash, the same stop buffer (200 μL) was again added to the wells. The plates were then sealed and read on the TopCount scintillation counter.
The IC50 was derived according to the procedure described in Example 52. For those compounds without an IC50, the percent inhibition results are shown at a test concentration of 1 μM.

In a further assay the target is T3, EGFR (Homo sapiens, UniProt P00533).
T3 construct: started at nucleotide 2189 (corresponding to amino acid 667) and ended at the termination codon; made in house; host or cells: Sf9 insect cells (baculovirus)
T3 sequence (P00533 667-1210 limits assumed): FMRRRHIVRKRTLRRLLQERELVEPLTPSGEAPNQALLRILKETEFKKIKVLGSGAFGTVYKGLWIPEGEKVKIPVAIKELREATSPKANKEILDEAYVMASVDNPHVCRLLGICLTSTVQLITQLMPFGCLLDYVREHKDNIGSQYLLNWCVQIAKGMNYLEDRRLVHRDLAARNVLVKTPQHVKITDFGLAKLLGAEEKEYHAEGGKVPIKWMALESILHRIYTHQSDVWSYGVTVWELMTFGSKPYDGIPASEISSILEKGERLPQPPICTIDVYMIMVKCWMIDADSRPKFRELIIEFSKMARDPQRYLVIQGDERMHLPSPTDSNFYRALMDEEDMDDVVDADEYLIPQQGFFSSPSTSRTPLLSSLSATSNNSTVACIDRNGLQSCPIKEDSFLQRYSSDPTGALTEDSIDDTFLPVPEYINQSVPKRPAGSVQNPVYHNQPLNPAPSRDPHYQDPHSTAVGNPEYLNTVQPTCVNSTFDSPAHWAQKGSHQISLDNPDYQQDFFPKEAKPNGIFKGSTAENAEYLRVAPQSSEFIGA
Put plainly: EGFR Kinase Assay (GST-EGFR, 33P-ATP, Streptavidin Flashplate). The settings on record: GST-EGFR intracellular portion, 5 μM ATP.

The target of the next assay is T4, c-Src kinase (human) (Homo sapiens, UniProt P12931).
T4 construct: purchased Upstate Biotechnology, Lake Placid, N.Y
T4 sequence (P12931 whole entry): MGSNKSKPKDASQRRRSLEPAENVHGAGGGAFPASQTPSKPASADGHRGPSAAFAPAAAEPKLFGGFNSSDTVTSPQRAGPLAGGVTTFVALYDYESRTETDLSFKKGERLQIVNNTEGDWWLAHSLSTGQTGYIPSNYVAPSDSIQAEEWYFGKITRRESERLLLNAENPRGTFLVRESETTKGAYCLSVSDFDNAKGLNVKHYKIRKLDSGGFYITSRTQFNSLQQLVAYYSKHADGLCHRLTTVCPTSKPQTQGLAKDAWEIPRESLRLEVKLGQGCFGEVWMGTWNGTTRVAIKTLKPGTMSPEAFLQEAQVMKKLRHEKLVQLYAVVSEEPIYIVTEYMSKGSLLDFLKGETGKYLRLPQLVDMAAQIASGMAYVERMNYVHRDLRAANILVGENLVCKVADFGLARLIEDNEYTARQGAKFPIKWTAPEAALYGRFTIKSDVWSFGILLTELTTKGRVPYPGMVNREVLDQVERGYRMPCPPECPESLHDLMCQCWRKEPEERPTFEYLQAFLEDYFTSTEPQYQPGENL
Put plainly: c-Src Kinase Assay. The method, then: […] a 10× kinase buffer (80 mM MOPS at pH 7.0, 2 mM EDTA and 100 mM Magnesium Chloride), ATP (5 μM final from a 10 mM stock), a Cdc2 peptide KVEKIGEGTYGVVYK (100 μM final from a 2.5 mM stock), γ-^33P ATP (10 μCi/μL stock) and water (20 μL/well) was added to each well of a Streptavidin Flashplate.
Test compound in 100% DMSO (0.5 μL) was added to the appropriate wells. Diluted c-Src kinase (human) (Upstate Biotechnology, Lake Placid, N.Y.) (diluted in a buffer consisting of 20 mM MOPS at pH 7.0, 1 mM EDTA, β-mercaptoethanol (0.1%), Brij-35 (0.01%), glycerol (5%), and 1 mg/mL bovine serum albumin) (2.5 μL) was added to the wells to initiate the reactions. The reaction plates were incubated at 30° C. for 40 min. The reaction was terminated by the addition of a 3% phosphoric acid solution (5 μL). The reaction product (10 μL) was spotted onto a P30 filtermat and washed for 5 minutes in phosphoric acid (75 mM). The wash sequence was repeated two more times, followed with one final wash in methanol. The plates were then dried, sealed and read on the TopCount scintillation counter after adding 30 μL scintillation fluid.
The percent inhibitions and IC50 values were derived according to the procedure described in Example 52. For those compounds without an IC50, the percent inhibition results are shown at a test concentration of ^(1)1 μM or ^(2)1.6 μM.

LYN (m), sequence (P25911 whole entry): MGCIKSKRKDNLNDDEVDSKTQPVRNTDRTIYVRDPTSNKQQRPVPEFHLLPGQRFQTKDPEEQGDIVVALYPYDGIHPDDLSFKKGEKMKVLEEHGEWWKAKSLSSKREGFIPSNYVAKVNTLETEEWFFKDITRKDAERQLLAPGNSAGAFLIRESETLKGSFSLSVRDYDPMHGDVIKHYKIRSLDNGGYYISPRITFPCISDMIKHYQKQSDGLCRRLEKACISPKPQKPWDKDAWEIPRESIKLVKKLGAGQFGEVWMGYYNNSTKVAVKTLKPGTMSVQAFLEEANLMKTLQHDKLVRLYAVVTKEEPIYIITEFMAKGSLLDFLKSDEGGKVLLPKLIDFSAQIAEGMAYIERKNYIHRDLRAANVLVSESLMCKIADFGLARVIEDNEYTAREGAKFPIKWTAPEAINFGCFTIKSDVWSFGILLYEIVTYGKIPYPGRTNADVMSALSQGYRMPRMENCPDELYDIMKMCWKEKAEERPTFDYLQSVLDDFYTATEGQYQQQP
T1 sequence (P07948 whole entry): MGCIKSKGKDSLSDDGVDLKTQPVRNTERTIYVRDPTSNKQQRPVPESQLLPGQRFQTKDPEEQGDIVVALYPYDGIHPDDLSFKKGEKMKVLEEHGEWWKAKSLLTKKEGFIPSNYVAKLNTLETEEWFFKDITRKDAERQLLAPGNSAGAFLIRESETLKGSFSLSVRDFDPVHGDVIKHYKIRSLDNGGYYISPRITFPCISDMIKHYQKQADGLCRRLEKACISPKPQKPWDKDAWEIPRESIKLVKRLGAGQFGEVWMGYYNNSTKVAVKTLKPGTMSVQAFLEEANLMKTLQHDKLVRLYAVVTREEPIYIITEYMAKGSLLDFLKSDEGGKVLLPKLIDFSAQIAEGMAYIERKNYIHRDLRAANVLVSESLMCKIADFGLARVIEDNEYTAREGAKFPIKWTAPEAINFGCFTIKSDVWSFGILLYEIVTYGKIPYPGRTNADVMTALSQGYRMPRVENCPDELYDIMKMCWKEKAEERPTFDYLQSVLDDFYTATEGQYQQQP

Consider `CN(C)Cc1ccc(Nc2nc3ncc(C#N)c(Nc4cccc5c4OC(F)(F)O5)c3s2)cc1` [Cpd 25, 7-(2,2-difluoro-benzo[1,3]dioxol-4-ylamino)-2-(4-dimethylaminomethyl-phenylamino)-thiazolo[4,5-b]pyridine-6-carbonitrile], for which the IC50 against Lyn kinase (human) ((h) human Lyn, 5 μM ATP) stood at 224 nM; on LYN (m), 790 nM; against HER-2, 92700 nM; against EGFR, 43.3 nM; on c-Src kinase (human) (human c-Src, 5 μM ATP), 1410 nM.

As for `N#Cc1cnc2nc(Nc3ccc(CN4CCCC4)cc3)sc2c1Nc1ccc(OCc2cccc(F)c2)c(Cl)c1` [Cpd 24, 7-[3-chloro-4-(3-fluoro-benzyloxy)-phenylamino]-2-(4-pyrrolidin-1-ylmethyl-phenylamino)-thiazolo[4,5-b]pyridine-6-carbonitrile], the inhibition at 1 µM was -5% at Lyn kinase (human) ((h), test concentration (1) 1 μM, read-out: LYN percent inhibition (h)); 10% on LYN (m) (test concentration (1) 1 μM, read-out: LYN percent inhibition (m)); 15% at c-Src kinase (human) (test concentration (1) 1 μM, read-out: c-SRC percent inhibition). In addition, the half-maximal inhibitory concentration (IC50) against HER-2 was 2060 nM; on EGFR, 33.3 nM.

The record behind these values is patent publication US7659284B2, “Thiazolopyridine kinase inhibitors” (Janssen Pharmaceutica NV, priority 2004, dated 2010).
